Reference: ChEMBL document CHEMBL3259630, “Interkingdom pharmacology of Angiotensin-I converting enzyme inhibitor phosphonates produced by actinomycetes” (ACS Med Chem Lett, 2014)

Key:
[1] = target: T1, Angiotensin-converting enzyme (Oryctolagus cuniculus, UniProt P12822); assay: Inhibition of rabbit lung somatic ACE using FAPGG substrate
T1 sequence (P12822 whole entry): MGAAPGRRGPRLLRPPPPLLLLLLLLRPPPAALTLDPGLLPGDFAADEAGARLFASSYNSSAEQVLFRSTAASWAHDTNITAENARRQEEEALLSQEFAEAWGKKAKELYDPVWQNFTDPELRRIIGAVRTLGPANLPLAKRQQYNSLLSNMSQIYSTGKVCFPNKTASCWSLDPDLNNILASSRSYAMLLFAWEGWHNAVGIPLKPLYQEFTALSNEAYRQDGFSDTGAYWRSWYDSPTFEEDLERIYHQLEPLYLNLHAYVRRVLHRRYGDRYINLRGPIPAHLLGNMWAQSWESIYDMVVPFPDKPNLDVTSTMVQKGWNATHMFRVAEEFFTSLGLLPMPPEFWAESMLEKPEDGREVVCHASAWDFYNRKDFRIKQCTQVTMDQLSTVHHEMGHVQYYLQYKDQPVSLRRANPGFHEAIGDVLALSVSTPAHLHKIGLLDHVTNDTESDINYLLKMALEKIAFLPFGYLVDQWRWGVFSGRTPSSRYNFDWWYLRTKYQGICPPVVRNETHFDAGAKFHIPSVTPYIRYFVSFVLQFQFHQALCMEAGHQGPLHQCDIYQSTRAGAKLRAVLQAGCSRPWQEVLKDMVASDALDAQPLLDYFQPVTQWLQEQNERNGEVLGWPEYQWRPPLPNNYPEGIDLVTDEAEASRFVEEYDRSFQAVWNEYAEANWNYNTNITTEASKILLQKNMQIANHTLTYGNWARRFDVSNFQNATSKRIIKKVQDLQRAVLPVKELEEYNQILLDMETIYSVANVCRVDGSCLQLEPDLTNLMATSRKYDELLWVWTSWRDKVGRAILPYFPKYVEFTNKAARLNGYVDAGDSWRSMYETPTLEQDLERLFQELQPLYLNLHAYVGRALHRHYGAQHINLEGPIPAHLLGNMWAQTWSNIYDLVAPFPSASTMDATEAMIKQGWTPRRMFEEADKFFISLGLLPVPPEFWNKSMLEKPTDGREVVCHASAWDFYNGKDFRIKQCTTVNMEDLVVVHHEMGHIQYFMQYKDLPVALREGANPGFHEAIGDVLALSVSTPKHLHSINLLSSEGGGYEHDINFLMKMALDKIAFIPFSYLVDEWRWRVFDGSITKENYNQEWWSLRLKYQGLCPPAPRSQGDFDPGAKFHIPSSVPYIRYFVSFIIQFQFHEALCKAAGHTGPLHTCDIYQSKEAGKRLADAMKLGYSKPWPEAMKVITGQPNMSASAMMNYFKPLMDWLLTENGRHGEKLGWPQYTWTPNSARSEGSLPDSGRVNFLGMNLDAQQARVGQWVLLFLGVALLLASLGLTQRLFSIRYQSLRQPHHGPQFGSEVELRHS

[2] = target: T2, Angiotensin-converting enzyme (Homo sapiens, UniProt P12821); assay: Inhibition of human ACE N-terminal domain using Cbz-Phe-His-Leu-OH substrate
[3] = target: T2, Angiotensin-converting enzyme; assay: Inhibition of human ACE C-terminal domain using Cbz-Phe-His-Leu-OH substrate
[4] = target: T3, Dipeptidyl carboxypeptidase (Escherichia coli (strain K12), UniProt P24171); assay: Inhibition of Escherichia coli dipeptidyl carboxypeptidase assessed as FAPGG substrate hydrolysis
T3 sequence (P24171 whole entry): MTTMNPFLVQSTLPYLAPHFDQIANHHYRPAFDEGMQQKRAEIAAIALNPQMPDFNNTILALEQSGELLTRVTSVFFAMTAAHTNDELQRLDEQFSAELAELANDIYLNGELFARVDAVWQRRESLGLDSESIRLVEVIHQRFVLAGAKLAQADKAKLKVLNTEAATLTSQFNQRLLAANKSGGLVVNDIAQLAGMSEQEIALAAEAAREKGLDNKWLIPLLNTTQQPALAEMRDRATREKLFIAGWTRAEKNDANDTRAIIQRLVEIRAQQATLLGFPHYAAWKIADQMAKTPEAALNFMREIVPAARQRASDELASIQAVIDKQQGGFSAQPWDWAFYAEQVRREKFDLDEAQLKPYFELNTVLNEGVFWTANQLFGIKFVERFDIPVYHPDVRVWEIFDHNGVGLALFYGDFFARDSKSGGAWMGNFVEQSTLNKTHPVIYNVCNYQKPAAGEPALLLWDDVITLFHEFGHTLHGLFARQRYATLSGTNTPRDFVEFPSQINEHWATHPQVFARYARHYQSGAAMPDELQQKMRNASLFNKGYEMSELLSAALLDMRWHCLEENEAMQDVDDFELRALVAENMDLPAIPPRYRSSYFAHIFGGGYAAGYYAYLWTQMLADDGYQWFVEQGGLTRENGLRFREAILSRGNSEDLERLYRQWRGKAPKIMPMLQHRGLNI

[5] = Inhibition of Astrosporangium hypotensionis dicarboxypeptidase assessed as FAPGG substrate hydrolysis
[6] = Inhibition of Schwanella oneidensis dipeptidyl carboxypeptidase assessed as FAPGG substrate hydrolysis
[7] = target: T2, Angiotensin-converting enzyme; assay: Inhibition of ACE (unknown origin)

T2 sequence (P12821 whole entry, the tested form may be a part): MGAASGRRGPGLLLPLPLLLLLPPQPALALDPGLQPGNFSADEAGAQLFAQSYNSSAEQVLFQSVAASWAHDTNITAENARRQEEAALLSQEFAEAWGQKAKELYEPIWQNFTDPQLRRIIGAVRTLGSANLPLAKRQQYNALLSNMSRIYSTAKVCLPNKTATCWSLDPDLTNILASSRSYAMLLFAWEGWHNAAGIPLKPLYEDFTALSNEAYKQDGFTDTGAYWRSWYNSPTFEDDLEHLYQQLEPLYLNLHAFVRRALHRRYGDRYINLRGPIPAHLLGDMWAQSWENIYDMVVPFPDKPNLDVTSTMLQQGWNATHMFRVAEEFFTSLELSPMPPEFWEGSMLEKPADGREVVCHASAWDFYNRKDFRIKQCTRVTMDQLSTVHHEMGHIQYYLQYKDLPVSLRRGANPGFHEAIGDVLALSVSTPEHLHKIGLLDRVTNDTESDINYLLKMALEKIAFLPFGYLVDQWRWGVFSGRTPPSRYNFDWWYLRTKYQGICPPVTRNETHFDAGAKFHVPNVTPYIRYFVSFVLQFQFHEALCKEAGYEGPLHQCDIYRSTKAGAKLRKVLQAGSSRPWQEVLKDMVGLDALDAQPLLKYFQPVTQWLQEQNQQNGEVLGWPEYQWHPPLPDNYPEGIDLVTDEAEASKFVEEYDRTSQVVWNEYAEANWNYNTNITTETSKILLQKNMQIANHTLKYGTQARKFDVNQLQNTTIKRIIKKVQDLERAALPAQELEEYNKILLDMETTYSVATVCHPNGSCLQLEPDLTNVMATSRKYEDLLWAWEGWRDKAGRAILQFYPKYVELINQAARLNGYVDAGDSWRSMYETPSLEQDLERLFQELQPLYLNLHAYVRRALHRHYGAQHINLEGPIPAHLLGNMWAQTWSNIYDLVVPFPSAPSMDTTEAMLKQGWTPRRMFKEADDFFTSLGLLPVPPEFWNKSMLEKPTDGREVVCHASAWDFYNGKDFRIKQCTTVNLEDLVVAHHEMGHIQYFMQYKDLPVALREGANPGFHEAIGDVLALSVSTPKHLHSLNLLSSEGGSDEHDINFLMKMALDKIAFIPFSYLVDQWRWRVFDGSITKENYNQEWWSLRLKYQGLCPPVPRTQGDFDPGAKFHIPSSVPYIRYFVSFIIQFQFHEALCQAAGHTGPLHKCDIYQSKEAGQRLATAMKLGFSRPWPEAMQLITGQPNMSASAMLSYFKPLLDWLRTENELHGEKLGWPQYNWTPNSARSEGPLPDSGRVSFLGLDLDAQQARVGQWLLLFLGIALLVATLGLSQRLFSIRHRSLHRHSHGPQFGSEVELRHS

Structure (SMILES)	IC50 [1] [nM]	IC50 [2] [nM]	IC50 [3] [nM]	further results
CC[C@H](C)[C@H](NC(C)=O)C(=O)N[C@@H](Cc1ccccc1)C(=O)N[C@@H](Cc1ccc(O)cc1)P(=O)(O)O	35	–	–	–
CN[C@H](C(=O)N[C@@H](Cc1ccc(O)cc1)C(=O)N[C@@H](Cc1ccc(O)cc1)P(=O)(O)O)C(C)C	140	52	54	–
CC[C@H](C)[C@H](NC(C)=O)C(=O)N[C@@H](Cc1ccc(O)cc1)C(=O)N[C@@H](Cc1ccc(O)cc1)P(=O)(O)O	25	110	11	IC50 [4]: 150000 nM; Ki [2]: 75 nM; Ki [3]: 11 nM; IC50 [5]: 40000 nM; IC50 [6]: 11000 nM
N[C@@H](Cc1ccc(O)cc1)P(=O)(O)O	–	–	–	IC50 [7]: > 1000 nM
CC[C@H](C)[C@H](NC(C)=O)C(=O)N[C@@H](CC(C)C)C(=O)N[C@@H](Cc1ccc(O)cc1)P(=O)(O)O	100	76	12	Ki [2]: 33 nM; Ki [3]: 21 nM
CC[C@H](C)[C@H](NC(C)=O)C(=O)N[C@@H](CCC(=O)O)C(=O)N[C@@H](Cc1ccc(O)cc1)P(=O)(O)O	5200	–	–	–
CN[C@H](C(=O)N[C@@H](Cc1ccccc1)C(=O)N[C@@H](Cc1ccc(O)cc1)P(=O)(O)O)C(C)C	370	220	590	–
